The test system of test [1] is transgenic 2D2 CD4+ T cells. The test can be described thus: 2D2 T cell proliferation (proliferation dye dilution) in DC co-culture. The test is classed as cell-based, mouse. The settings on record: DCs treated with CpG; 17 or 52 peptides per QD; 72 hours. How it is done: Stained cells were analyzed by flow cytometry.
The test system of test [2] is experimental autoimmune encephalomyelitis (EAE). The test is described as follows: EAE induction, MOG-QD treatment and monitoring. The test is classed as in vivo, C57BL/6 mice. The settings on record: single s.c. injection day 2, through day 21. How it is done: C57BL/6 mice (female, 10-12 weeks) were induced with EAE following a defined protocol from Hooke Labs. Briefly, mice were injected s.c. with an emulsion of MOG and complete Freund's adjuvant (CFA) at the upper and lower back on day 0. Pertussis toxin was also administered intraperitoneally 2 and 24 hours after MOG/CFA injection. Beginning at day 7, mice were weighed to detect changes from day 0 body weight (a symptom of disease) and scored for disease severity with respect to paralysis. A standard clinical scoring rubric was used: 0—no symptoms, 1—limp tail, 2—weakness of hind legs, 3—hind limb paralysis, 4—hind limb paralysis and partial front limb paralysis, 5—moribund.^[6, 7, 15]
Mice induced with EAE were randomly divided into groups of 8-10 mice each. A control group was left untreated in each experiment. In one experiment, additional groups were treated by s.c. injection at the tailbase with 0.2 nanomoles QDs, 70 μg MOG, 70 μg CTRL peptide on 0.2 nanomoles QDs (100:1), or 70 μg MOG peptide on 0.2 nanomoles QDs (100:1). Similar experiments contained two treatment groups: 14.3 μg MOG on 0.4 nanomoles QDs (17:1) or 73 μg MOG on 0.2 nanomoles QDs (52:1). The final experiment design contained three treatment groups: 70 μg MOG on 0.5 nanomoles QDs (25:1), 70 μg MOG on 0.4 nanomoles QDs (52:1), or 70 μg MOG on 0.3 nanomoles QDs (65:1).

Where no end group is shown, it is not given here.

Take “HHHHHSAAAAAGISQAVHAAHAEINEAGR (not fully specified) [free CTRL peptide]”: in test [1], the “2D2 T cell proliferation” value is listed as “neither CTRL-QDs nor free CTRL peptide caused proliferation”.

With “HHHHHSAAAAAGMEVGWYRSPFSRVVHLYRNGK [free MOG]”, in test [1], the “2D2 T cell proliferation” value is “equivalent”. Also, the “disease progression (clinical score)” value in test [2] (100:1, 70 μg peptide on 0.2 nanomoles QDs or component controls) is reported as “none of the groups except MOG-QDs caused significant differences in clinical scores”. For the same sequence, in test [2] (100:1 or component controls), the disease incidence entry is listed as “no differences in disease incidence”.

The values are drawn from patent US10898583B2, “Harnessing quantum dots to study, visualize, and promote immune tolerance” (University of Maryland, College Park, priority 2016, dated 2021).
